Results on three compounds are retold here after patent US20080214521A1, “Sensitization of Drug-Resistant Lung Caners to Protein Kinase Inhibitors” (priority 2005, published 2008).

One data set concerns NCI-H1299. Kind of data set: Cell cycle distribution by flow cytometry. Format: cell-based. Conditions: 50 μM PKC412, 24 hours. Background: Flow cytometry measures light scatter and fluorescence of single cells or particles in a stream.
In data set [1] the test system is phosphorylation of protein kinase B/AKT and glycogen synthase kinase 3-beta. Kind of data set: Immunoblotting of downstream targets of PKC signal transduction after PMA stimulation. Conditions: drug-resistant and drug-sensitive cell lines; PKC412 1 to 10 μM for 2 hours, then PMA 1 μM 10 minutes. Format: cell-based. As for the experimental part: Immunoblotting and cell fractionation was performed as described previously (38, 39) using primary antibodies against caspase-9 (Chemicon), caspase-3, BCL-XL, cytochrome c (BD Pharmingen), BAX, BAK, PARP (Upstate), AKT, phospho-AKT, GSK-3beta, phospho-GSK3beta (Cell Signaling), and actin (ICN).
In general terms: A western blot detects proteins with antibodies after separation by electrophoresis.

The test system of the next data set is NCI-H460 cells. Kind of data set: Drug synergy analysis, PKC412 with etoposide (VP16), sub-G1 flow cytometry. Particulars: simultaneous 25 μM etoposide and escalating PKC412 (0-100 μM), 48 hours. It counts as cell-based. The method, then: (§1) All other drugs were purchased from Sigma.
(§2) After 48 hours, the fraction of cells with subdiploid DNA content (sub-G1) was quantified by flow cytometry. DMSO-treated cells (white bars) served as negative controls.

In a further data set the test system is A549 cells. The description is as above. It counts as cell-based. As for the experimental part:
as §1, §2

For the next data set, the system named is lung cancer xenograft. Conditions: mouse, in vivo; cited from earlier work.
For the next data set, the system named is NCI-H1299 cells. Kind of data set: Drug synergy analysis, PKC412 with etoposide (VP16), sub-G1 flow cytometry.
The next data set has as its system cancer cell lines. Conditions: cited from earlier work.
The conditions of data set [2]: phase I study, cited from earlier work.
Data set [3] deals with NSCLC cell lines expressing BAK under the control of a tetracycline-regulated promoter. Briefly: Apoptosis induced by PKC inhibitors with conditional BAK expression (DOX), sub-G1 / TMRE / caspase cleavage immunoblot. Format: cell-based. Conditions: drug-resistant NSCLC cells (A549, NCI-H1299), 48 hours. As for the experimental part:
NSCLC cell lines known in the art were obtained. Unless otherwise specified, NSCLC cells were grown on tissue culture dishes (BD Falcon) in Dulbecco's Modified Eagle Medium supplemented with 10% fetal bovine serum, glucose, L-glutamine and penicillin/streptomycin in a humidified atmosphere at 5% CO2. NSCLC cells conditionally expressing transgenic BAK were obtained using the BD RevTet-On vector system (BD Clontech). A BamHI fragment encoding the full length human BAK cDNA was generated by PCR, confirmed by sequencing, and cloned into the pRevTRE vector. A retroviral BCL-XL expression vector has been described previously (26). Replication-defective retroviral virions were produced by standard calcium phosphate transfection in the FNX ampho packaging cell line (a gift from Dr G. P. Nolan, Stanford). Transductions were performed using filtered supernatants, and populations were selected with hygromycin B and puromycin in the absence of tetracycline, or were obtained by fluorescence activated cell sorting (Coulter) of EGFP-positive cells. […]
Cells with subdiploid DNA content (sub-G1) were quantified by flow cytometry after 48 hours. […] Cells that maintained Δψm (TMRE+) were quantified by TMRE-staining and flow cytometry after 48 hours. […] Whole cell extracts were obtained at 24 hours, and the cleavage of caspase-9, caspase-3 and the caspase substrate PARP was detected by immunoblotting.

The subject of data set [4] is NSCLC cells expressing BAK under the control of a tetracycline-regulated promoter. Kind of data set: Apoptosis facilitated by conditionally expressed transgenic BAK. It counts as cell-based. Particulars: BAK induced by DOX; data not shown.
Where [5] appears, read: simultaneous 25 μM etoposide and escalating PKC412 (0-100 μM), 48 hours.

Regarding `CO[C@@H]1[C@H](N(C)C(=O)c2ccccc2)C[C@H]2O[C@]1(C)n1c3ccccc3c3c4c(c5c6ccccc6n2c5c31)C(=O)NC4` [PKC412, N-[(9S,10R,11R,13R)-2,3,10,11,12,13-hexahydro-10-methoxy-9-methyl-1-oxo-9,13-epoxy-1H,9H-diindolo[1,2,3-gh:3′,2′,1′-Im]pyrrolo[3,4j][1,7]benzodiazonin-11-yl]-N-methylbenzamide], the “cell cycle distribution after pre-treatment with PKC412” value in the data set on NCI-H1299 is on record as “cell cycle arrest in the G2/M-phase”. Besides, in data set [1], the “phosphorylation of downstream targets of PKC signal transduction (AKT, GSK-3beta)” value is “effectively reduced”. In the data set with NCI-H460 cells, the “apoptosis with PKC412 plus VP16 compared to VP16 alone” value is “no further increase in apoptosis”. For the same compound, in the data set with A549 cells (50 μM PKC412 and 25 μM etoposide, sequential, 24 hours each), the “apoptosis after PKC412 pre-treatment versus VP16 pre-treatment” value is reported as “did not significantly differ”. In the data set with A549 cells (setting [5]), the “cytotoxicity of combined treatment with PKC412 and VP16” value is on record as “additive cytotoxicity”. Further, the “effects in murine xenograft model of lung cancer” value in the data set on lung cancer xenograft was “antitumoral and antiangiogenic effects”. Besides, the “apoptosis induced by VP16 given subsequently to PKC412” value in the data set on NCI-H1299 cells (50 μM PKC412 24 hours, then 25 μM etoposide another 24 hours) was “reduced the amount of apoptosis”. In addition, the “effect of PKC412 on VP16-induced apoptosis” value in the data set with NCI-H1299 cells (setting [5]) is reported as “protected NCI-H1299 cells against VP16-induced apoptosis”. Moreover, the “effect on cancer cell lines” value in the data set with cancer cell lines was “induced cell cycle arrest or apoptosis”. In addition, the “safety of combination with CDDP/gemcitabine” value in data set [2] (patients with advanced NSCLC, with standard cytotoxic regimen of CDDP/gemcitabine) is on record as “established”. Moreover, the “safety and feasibility of oral administration” value in data set [2] (patients with advanced cancers, oral) was “safe and feasible”. For the same compound, the “sensitisation to PKC412-mediated apoptosis by inducible expression of BAK” value in data set [3] is “Sensitized”.

Take `CN[C@@H]1C[C@H]2O[C@@](C)([C@@H]1OC)n1c3ccccc3c3c4c(c5c6ccccc6n2c5c31)C(=O)NC4` [staurosporine]: the “effects in murine xenograft model of lung cancer” value in the data set on lung cancer xenograft is “antitumoral and antiangiogenic effects”. Also, the “effect on cancer cell lines” value with cancer cell lines is listed as “induced cell cycle arrest or apoptosis”.

Consider zVAD-fmk, for which the “effect on apoptosis facilitated by transgenic BAK” value in [4] is on record as “inhibited”.
